Reference: paper PMC11678328, “Phosphine Oxide Indenoquinoline Derivatives: Synthesis and Biological Evaluation as Topoisomerase I Inhibitors and Antiproliferative Agents” (Molecules, 2024)

Columns and labels:
human TOP1 [1] = molecular target: T1, human TOP1 (Homo sapiens, UniProt P11387); test: TOP1 supercoiled plasmid DNA relaxation assay; assay type: biochemical; conditions: for Persistence of TOP1 inhibition over the time course: in words; for TOP1 Inhibition 1 min: 1 min reaction; for TOP1 Inhibition 1 min / TOP1 Inhibition 3 min / TOP1 Inhibition 5 min: compounds at 100 μM, semiquantitative; for TOP1 Inhibition 3 min: 3 min reaction; for TOP1 Inhibition 5 min: 5 min reaction
T1 construct: made in house; host or cells: Saccharomyces cerevisiae TOP1 null strain RS190, plasmid pHT143 (GAL promoter)
T1 sequence (P11387 1-765): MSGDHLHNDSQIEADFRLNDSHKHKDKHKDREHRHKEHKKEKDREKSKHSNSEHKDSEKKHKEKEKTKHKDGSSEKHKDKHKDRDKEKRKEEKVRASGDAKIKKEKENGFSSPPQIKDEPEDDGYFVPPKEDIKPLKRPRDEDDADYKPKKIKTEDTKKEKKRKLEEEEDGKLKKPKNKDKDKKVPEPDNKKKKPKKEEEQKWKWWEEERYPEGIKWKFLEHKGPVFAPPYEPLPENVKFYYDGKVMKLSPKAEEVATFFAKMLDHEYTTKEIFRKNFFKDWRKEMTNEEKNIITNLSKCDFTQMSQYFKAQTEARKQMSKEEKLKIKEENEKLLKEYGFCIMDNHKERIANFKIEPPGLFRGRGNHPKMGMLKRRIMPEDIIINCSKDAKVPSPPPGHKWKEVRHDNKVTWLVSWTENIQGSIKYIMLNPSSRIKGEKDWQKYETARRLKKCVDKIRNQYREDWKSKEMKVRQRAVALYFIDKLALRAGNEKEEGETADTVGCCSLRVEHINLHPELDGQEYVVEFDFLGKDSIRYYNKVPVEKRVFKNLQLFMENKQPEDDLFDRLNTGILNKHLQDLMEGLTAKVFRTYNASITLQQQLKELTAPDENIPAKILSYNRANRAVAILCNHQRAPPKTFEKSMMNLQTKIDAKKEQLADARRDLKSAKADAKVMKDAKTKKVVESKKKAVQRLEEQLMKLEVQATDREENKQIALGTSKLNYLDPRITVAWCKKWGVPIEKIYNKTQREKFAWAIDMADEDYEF
Text: The effect of the previously prepared compounds as TOP1 inhibitors was studied. A conventional supercoiled plasmid relaxation assay was used to determine if the newly fused tetrahydroindenoquinolines 8, more aromatic indenoquinolines 9, and carbonyl derivatives 10 with phosphine oxide substituents inhibit human TOP1 activity by converting supercoiled plasmid DNA to its relaxed form. In these experiments, compound samples were mixed with the enzyme followed by the addition of a supercoiled plasmid DNA substrate, and incubation continued for increasing time intervals (1 min, 3 min, and 5 min). The reaction was terminated by the addition of SDS. DNA relaxation products were then resolved by 1% agarose electrophoresis gel and visualized by gel red staining.
The yeast Saccaromyces cerevisiae TOP1 null strain RS190, which was used for the expression of recombinant human TOP1, was a kind gift from R. Sternglanz (State University of New York, Stony Brook, NY, USA). Plasmid pHT143, for the expression of recombinant TOP1 under the control of an inducible GAL promoter, was described. The plasmids pHT143 were transformed into the yeast S. cerevisiae strain RS190. The proteins were expressed and purified by affinity chromatography essentially as described. The protein concentrations were estimated from Coomassie blue-stained SDS/polyacrylamide gels by comparison to serial dilutions of bovine serum albumin (BSA).
TOP1 activity was assayed using a DNA relaxation assay by incubating 110 ng/mL of TOP1 with 0.5 µg of negatively supercoiled pUC18 in […] of reaction buffer (20 mM Tris HCl, 0.1 mM Na2EDTA, 10 mM MgCl2, […] acetylated BSA, and 150 mM KCl, pH 7.5). The effect of the synthesized phosphorylated derivatives 8, 9, and 10 on the TOP1 activity was measured by adding different concentrations of the compounds, at different time points, as indicated in the text. The reactions were performed at 37 °C stopped by the addition of 0.5% SDS after the indicated time intervals. The samples were protease-digested and electrophoresed in a horizontal 1% agarose gel in 1xTBE (50 mM Tris, 45 mM boric acid, 1 mM EDTA) at 25V during 18h. The gel was stained with gel red (BIOTIUM, 5 mg/mL), destained with water, and photographed under UV illumination. Since all drugs were dissolved in dimethyl sulfoxide (DMSO), a […] control sample containing the same DMSO concentration as the samples incubated with the drugs was included in all experiments.

[2] = tested on: A549 (carcinomic human alveolar basal epithelial cell); test: CCK-8 cytotoxicity assay, A549; assay type: cell-based; conditions: Homo sapiens, A549, 48 h, A549 cells, 48h, CCK-8
Text: (§1) The cytotoxic effects of the newly synthesized diphenyl(tetrahydro-5H-indeno[2,1-c]quinolin-2-yl)phosphine oxides 8, diphenyl(7H-indeno[2,1-c]quinolin-2-yl)phosphine oxides 9, and diphenyl(7-oxo-7H-indeno[2,1-c]quinolin-2-yl)phosphine oxides 10 derivatives were studied against several human cell lines: A549 (carcinomic human alveolar basal epithelial cell), SKOV3 (human ovarian carcinoma), and HEK293 (human embryonic kidney). Furthermore, in order to analyze the selective cytotoxicity facing exclusively cancerous cell lines, toxicity against a non-cancerous cell line (MRC-5, lung fibroblast cells) was also evaluated (Table 3). The cell counting kit (CCK-8) assay was employed to assess the growth inhibition and cell proliferation inhibitory activities of the compounds, which are described in Table 3 as IC50 values.
(§2) Cells were cultured according to the supplier’s instructions. Cells were seeded in 96-well plates at a density of 1.5–3 × 10^3 cells per well and incubated overnight in 0.1 mL of media supplied with 10% Fetal Bovine Serum (Lonza) in a 5% CO2 incubator at 37 °C. On day 2, drugs were added and the samples were incubated for 48h. After treatment, 10 μL of the cell counting kit-8 was added into each well for an additional 2h incubation at 37 °C. The absorbance of each well was determined by an Automatic Elisa Reader System at 450 nm wavelength (deducting 620 nm). CPT was used as the positive control.

[3] = tested on: HEK293 (human embryonic kidney); test: CCK-8 cytotoxicity assay, HEK293; assay type: cell-based; conditions: HEK293 cells, 48h
Text: as §1, §2

[4] = tested on: SKOV3 (human ovarian carcinoma); test: CCK-8 cytotoxicity assay, SKOV3; assay type: cell-based; conditions: SK-OV-3, SKOV3 cells, 48h
Text: as §1, §2

human TOP1 [5] = molecular target: T1, human TOP1; test: TOP1 supercoiled plasmid DNA relaxation assay; assay type: biochemical; conditions: for TOP1 Inhibition 30 min: 30 min reaction, compounds at 100 μM, semiquantitative
[6] = tested on: MRC-5, lung fibroblast cells; test: CCK-8 cytotoxicity assay, MRC5; assay type: cell-based, human; conditions: Homo sapiens; MRC5 non-cancerous cells, 48h, CCK-8
Text: as §1, §2

SMILES | TOP1 relaxation activity after preincubation of compound with TOP1 (human TOP1 [1]; 100 μM, compound incubated with TOP1 for 15 min at 37 °C, then DNA added) | Persistence of TOP1 inhibition over the time course (human TOP1 [1]; 100 μM) | TOP1 Inhibition 1 min (human TOP1 [1]) | TOP1 Inhibition 3 min (human TOP1 [1]) | TOP1 Inhibition 5 min (human TOP1 [1]) | IC50 [2] | IC50 [3] | IC50 [4] | TOP1 relaxation activity after preincubation of compound with DNA (human TOP1 [5]; 100 μM, compound incubated with DNA for 15 min at 37 °C before TOP1 was added) | TOP1 Inhibition 30 min (human TOP1 [5]) | IC50 [6]
O=P(c1ccccc1)(c1ccccc1)c1ccc2c(c1)C1c3ccccc3CC1C(c1ccc(C(F)(F)F)cc1)N2 (stereo not shown) [Compound 8b, Diphenyl(6-(4-(trifluoromethyl)phenyl)-6,6a,7,11b-tetrahydro-5H-indeno[2,1-c]quinolin-2-yl)phosphine oxide] | the enzyme was inactive, not being able to relax the DNA | more persistent inhibition | +++ (strong inhibition) | +++ (strong inhibition) | +++ (strong inhibition) | 25.8 ± 6.98 µM | > 50 µM | > 50 µM | partially relaxing the DNA | +++ (strong inhibition) | > 50 µM
O=[N+]([O-])c1ccc(C2Nc3ccc(P(=O)(c4ccccc4)c4ccccc4)cc3C3c4ccccc4CC23)cc1 (stereo not shown) [Compound 8k, Diphenyl(6-(4-nitrophenyl)-6,6a,7,11b-tetrahydro-5H-indeno[2,1-c]quinolin-2-yl)phosphine oxide] | – | more persistent inhibition | + (weak inhibition) | + (weak inhibition) | + (weak inhibition) | > 50 µM | > 50 µM | > 50 µM | – | + (weak inhibition) | > 50 µM
O=P(c1ccccc1)(c1ccccc1)c1ccc2c(c1)C1c3ccccc3CC1C(c1ccc(F)cc1)N2 (stereo not shown) [Compound 8c, Diphenyl(6-(4-fluorophenyl)-6,6a,7,11b-tetrahydro-5H-indeno[2,1-c]quinolin-2-yl)phosphine oxide] | – | – | ++ | ++ | ++ | 19.9 ± 3.35 µM | > 50 µM | > 50 µM | – | ++ | 10.7 ± 0.43 µM
